Reference: patent EP4745135A1 (Gluetacs Therapeutics (Shanghai) Co., Ltd., priority 2023, dated 2025)

Assays:
CK1α = target: T1, CK1α (Homo sapiens, UniProt P48729+Q96SW2); assay: Western blot, degradation of substrate protein in hPBMCs; type: cell-based
T1 construct: effects of the compounds of the present disclosure on the expression of target proteins in cells; endogenous in cells; host or cells: human PBMCs (Milecell Biotechnologies)

IKZF1 = target: T2, IKZF1 (Homo sapiens, UniProt Q13422+Q96SW2); assay: as above; type: cell-based
T2 construct: effects of the compounds of the present disclosure on the expression of target proteins in cells; endogenous in cells; host or cells: human PBMCs (Milecell Biotechnologies)
T2 sequence (Q13422 whole entry): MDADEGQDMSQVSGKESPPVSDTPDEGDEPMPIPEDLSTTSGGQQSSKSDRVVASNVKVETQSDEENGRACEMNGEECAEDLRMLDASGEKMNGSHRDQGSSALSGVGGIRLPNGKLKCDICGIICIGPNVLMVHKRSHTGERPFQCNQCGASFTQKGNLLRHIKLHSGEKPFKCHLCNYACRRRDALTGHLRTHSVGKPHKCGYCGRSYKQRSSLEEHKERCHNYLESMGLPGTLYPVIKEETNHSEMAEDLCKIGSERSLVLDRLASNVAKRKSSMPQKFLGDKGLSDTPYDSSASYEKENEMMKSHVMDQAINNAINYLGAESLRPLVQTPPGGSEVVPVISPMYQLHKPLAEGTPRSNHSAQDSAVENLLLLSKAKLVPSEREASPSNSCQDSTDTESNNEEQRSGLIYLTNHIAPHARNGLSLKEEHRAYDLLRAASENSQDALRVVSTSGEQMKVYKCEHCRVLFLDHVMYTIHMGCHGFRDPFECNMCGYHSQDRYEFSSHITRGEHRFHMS
T2 sequence (Q96SW2 whole entry): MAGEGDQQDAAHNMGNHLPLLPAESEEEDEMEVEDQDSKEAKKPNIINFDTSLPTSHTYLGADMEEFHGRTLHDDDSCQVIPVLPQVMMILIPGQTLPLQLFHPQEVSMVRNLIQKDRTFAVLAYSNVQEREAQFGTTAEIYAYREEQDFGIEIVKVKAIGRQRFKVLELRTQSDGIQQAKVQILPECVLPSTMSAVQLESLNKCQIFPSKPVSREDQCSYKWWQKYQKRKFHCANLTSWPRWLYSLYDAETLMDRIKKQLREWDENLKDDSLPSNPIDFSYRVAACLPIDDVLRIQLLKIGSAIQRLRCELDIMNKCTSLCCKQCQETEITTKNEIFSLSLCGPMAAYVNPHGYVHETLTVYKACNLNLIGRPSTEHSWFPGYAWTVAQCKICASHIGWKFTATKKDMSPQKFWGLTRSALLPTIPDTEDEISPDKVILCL
T2 sequence (Q16531 whole entry partner): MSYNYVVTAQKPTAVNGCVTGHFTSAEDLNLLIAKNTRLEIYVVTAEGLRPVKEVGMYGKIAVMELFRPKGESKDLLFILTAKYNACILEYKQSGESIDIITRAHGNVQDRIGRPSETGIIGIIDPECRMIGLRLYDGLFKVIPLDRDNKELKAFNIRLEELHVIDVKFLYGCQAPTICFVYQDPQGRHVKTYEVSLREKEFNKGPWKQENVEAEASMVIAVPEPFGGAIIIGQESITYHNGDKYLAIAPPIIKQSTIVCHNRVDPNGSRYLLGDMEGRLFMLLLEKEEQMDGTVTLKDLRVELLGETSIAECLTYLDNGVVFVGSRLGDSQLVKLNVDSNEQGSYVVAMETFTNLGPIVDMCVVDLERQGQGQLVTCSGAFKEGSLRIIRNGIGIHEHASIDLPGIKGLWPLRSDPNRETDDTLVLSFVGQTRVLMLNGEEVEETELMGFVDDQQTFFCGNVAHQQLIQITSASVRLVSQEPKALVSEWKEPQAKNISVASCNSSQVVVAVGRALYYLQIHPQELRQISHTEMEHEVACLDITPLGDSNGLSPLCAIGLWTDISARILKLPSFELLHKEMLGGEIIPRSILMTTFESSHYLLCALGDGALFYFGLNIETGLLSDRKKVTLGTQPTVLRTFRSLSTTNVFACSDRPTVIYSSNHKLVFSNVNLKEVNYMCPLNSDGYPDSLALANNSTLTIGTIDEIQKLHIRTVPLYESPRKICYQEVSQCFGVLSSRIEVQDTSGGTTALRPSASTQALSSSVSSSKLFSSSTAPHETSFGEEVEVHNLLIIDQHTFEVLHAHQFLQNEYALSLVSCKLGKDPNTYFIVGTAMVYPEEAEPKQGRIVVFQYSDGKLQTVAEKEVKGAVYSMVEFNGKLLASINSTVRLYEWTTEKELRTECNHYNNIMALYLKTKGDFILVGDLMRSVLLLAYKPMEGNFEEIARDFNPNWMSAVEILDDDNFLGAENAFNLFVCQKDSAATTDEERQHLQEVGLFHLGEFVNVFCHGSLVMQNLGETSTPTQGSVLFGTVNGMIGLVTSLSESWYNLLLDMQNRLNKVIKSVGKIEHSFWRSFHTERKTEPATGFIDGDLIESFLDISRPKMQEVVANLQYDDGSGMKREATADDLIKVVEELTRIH

IKZF2 = target: T3, IKZF2 (Homo sapiens, UniProt Q96SW2+Q9UKS7); assay: as above; type: cell-based
T3 construct: effects of the compounds of the present disclosure on the expression of target proteins in cells; endogenous in cells; host or cells: human PBMCs (Milecell Biotechnologies)
T3 sequence (Q9UKS7 whole entry): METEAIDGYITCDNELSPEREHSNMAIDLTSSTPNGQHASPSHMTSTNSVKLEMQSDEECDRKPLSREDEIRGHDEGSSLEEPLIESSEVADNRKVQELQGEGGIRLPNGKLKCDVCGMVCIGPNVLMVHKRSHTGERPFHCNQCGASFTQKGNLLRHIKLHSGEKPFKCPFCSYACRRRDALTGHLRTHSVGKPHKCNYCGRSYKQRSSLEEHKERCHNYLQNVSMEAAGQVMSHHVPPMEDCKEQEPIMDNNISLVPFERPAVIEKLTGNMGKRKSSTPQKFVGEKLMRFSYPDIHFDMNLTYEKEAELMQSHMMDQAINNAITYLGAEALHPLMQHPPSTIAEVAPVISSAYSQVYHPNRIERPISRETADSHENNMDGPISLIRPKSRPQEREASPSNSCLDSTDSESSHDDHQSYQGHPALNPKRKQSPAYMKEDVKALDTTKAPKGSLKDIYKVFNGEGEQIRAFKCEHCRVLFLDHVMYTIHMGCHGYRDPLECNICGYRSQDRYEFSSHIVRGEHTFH
T3 sequence (Q96SW2 whole entry): as the sequence (Q96SW2 whole entry) above
T3 sequence (Q16531 whole entry partner): as the sequence (Q16531 whole entry partner) above

IKZF3 = target: T4, IKZF3 (Homo sapiens, UniProt Q96SW2+Q9UKT9); assay: as above; type: cell-based
T4 construct: effects of the compounds of the present disclosure on the expression of target proteins in cells; endogenous in cells; host or cells: human PBMCs (Milecell Biotechnologies)
T4 sequence (Q9UKT9 whole entry): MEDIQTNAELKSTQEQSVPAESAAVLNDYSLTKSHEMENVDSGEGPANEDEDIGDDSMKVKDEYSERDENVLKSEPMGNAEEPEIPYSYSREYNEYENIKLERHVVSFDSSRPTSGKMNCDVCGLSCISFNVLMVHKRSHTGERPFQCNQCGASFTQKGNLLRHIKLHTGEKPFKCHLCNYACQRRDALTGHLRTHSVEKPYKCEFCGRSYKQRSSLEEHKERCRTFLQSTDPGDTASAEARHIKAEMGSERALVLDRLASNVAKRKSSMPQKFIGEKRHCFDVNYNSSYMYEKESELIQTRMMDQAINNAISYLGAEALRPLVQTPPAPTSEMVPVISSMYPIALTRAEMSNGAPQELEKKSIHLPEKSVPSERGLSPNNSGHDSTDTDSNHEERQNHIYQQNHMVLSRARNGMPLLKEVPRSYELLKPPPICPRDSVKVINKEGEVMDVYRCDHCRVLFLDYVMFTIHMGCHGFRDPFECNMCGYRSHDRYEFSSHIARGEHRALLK
T4 sequence (Q96SW2 whole entry): as the sequence (Q96SW2 whole entry) above
T4 sequence (Q16531 whole entry partner): as the sequence (Q16531 whole entry partner) above

WEE1 = target: T5, WEE1 (Homo sapiens, UniProt P30291+Q96SW2); assay: as above; type: cell-based
T5 construct: effects of the compounds of the present disclosure on the expression of target proteins in cells; endogenous in cells; host or cells: human PBMCs (Milecell Biotechnologies)
T5 sequence (P30291 whole entry): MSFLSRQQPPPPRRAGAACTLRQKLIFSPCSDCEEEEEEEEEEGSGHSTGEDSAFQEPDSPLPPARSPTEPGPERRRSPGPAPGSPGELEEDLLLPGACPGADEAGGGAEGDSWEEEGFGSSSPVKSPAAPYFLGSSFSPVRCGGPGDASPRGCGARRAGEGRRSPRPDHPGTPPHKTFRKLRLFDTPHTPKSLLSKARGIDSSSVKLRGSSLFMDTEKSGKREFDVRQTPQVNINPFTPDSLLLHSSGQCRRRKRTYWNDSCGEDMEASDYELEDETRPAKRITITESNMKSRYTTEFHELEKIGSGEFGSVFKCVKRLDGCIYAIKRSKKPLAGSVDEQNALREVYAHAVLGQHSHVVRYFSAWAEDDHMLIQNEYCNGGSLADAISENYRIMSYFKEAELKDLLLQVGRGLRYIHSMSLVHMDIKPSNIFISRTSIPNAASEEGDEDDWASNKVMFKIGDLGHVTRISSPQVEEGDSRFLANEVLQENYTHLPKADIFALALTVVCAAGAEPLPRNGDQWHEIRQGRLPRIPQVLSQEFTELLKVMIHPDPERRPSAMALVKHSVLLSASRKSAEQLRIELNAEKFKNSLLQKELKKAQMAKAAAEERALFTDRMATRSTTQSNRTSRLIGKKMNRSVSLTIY
T5 sequence (Q96SW2 whole entry): as the sequence (Q96SW2 whole entry) above
T5 sequence (Q16531 whole entry partner): as the sequence (Q16531 whole entry partner) above

GSPT1 = assay: as above; type: cell-based, Human
[1] = target: T6, human Cereblon WT GST-tagged protein (Homo sapiens, UniProt Q96SW2); assay: CRBN-binding affinity, HTRF (CEREBLON BINDING kit); details: for inhibition at 0.5 µM: read-out: Inhibition Rate at 0.5 µM (%); for inhibition at 2 µM: read-out: Inhibition Rate at 2 µM (%)
T6 construct: purchased CISBIO 64BDCRBNPEH
T6 sequence (Q96SW2 whole entry): as the sequence (Q96SW2 whole entry) above

[2] = 24 hours treatment, compounds at 50 nM and 500 nM (concentration behind the class not stated)
[3] = Western blot, 24 hours of compound treatment, compounds tested at 50 nM and 500 nM (concentration for the table not stated)

T1 sequence (P48729 whole entry): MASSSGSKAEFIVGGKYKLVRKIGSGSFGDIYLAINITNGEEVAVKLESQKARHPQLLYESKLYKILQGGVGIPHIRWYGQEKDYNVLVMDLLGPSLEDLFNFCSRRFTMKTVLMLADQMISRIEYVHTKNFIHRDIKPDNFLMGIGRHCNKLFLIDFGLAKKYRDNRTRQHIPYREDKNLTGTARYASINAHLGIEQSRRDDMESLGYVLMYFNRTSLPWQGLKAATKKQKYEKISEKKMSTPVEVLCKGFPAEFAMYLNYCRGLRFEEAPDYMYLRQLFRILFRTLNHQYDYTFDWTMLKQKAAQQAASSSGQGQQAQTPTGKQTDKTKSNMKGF
T1 sequence (Q96SW2 whole entry): as the sequence (Q96SW2 whole entry) above
T1 sequence (Q16531 whole entry partner): as the sequence (Q16531 whole entry partner) above

SMILES | CK1α substrate protein remaining % (CK1α; [2]) | IKZF 1 substrate protein remaining % (IKZF1; [2]) | IKZF2 substrate protein remaining % (IKZF2; [2]) | IKZF3 substrate protein remaining % (IKZF3; [2]) | Wee1 substrate protein remaining % (WEE1; [2]) | GSPT1 substrate protein remaining % (GSPT1; [2]) | inhibition at 0.5 µM [1] [%] | inhibition at 2 µM [1] [%] | CK1α substrate protein remaining % (CK1α; [3]) | IKZF 1 substrate protein remaining % (IKZF1; [3]) | IKZF2 substrate protein remaining % (IKZF2; [3]) | IKZF3 substrate protein remaining % (IKZF3; [3]) | Wee1 substrate protein remaining % (WEE1; [3]) | GSPT1 substrate protein remaining % (GSPT1; [3])
O=C1CCC(N2Cc3c(CN4CCN(c5nc(N6CCOCC6)nc6c5SCC6)CC4)cccc3C2=S)C(=O)N1 (stereo not drawn) [GT-08968, 3-(4-((4-(2-morpholino-6,7-dihydrothieno[3,2-d]pyrimidin-4-yl)piperazin-1-yl)methyl)-1-thioxoisoindolin-2-yl)piperidine-2,6-dione] | B (80%< substrate protein remaining %≤ 100%) | B (80%< substrate protein remaining %≤ 100%) | B (80%< substrate protein remaining %≤ 100%) | B (80%< substrate protein remaining %≤ 100%) | A (0% ≤ substrate protein remaining % ≤ 80%) | B (80%< substrate protein remaining %≤ 100%) | 60 to 80 | 80 to 100 |  |  |  |  |  | 
CC1(C)CCC(CN2C3CCC2CN(Cc2cccc4c2CN(C2CCC(=O)NC2=O)C4=S)C3)=C(c2ccc(Cl)cc2)C1 (stereo not drawn) [GT-08291, 3-(4-((8-((4'-chloro-5,5-dimethyl-3,4,5,6-tetrahydro-[1,1-biphenyl]-2-yl)methyl)-3,8-diazabicyclo[3.2.1]octan-3-yl)methyl)-1-thioxoisoindolin-2-yl)piperidine-2,6-dione] |  |  |  |  |  |  | 20 to 30 | 60 to 80 | A (0% ≤ substrate protein remaining % ≤ 80%) | B (80%< substrate protein remaining %≤ 100%) | B (80%< substrate protein remaining %≤ 100%) | B (80%< substrate protein remaining %≤ 100%) | A (0% ≤ substrate protein remaining % ≤ 80%) | A (0% ≤ substrate protein remaining % ≤ 80%)
O=C1CCC(N2Cc3c(CN4CC=C(c5ccsc5)CC4)cccc3C2=S)C(=O)N1 (stereo not drawn) [GT-08300, 3-(4-((4-(thiophen-3-yl)-3,6-dihydropyridin-1(2H)-yl)methyl)-1-thioxoisoindolin-2-yl)piperidine-2,6-dione] |  |  |  |  |  |  | 40 to 53 | 60 to 80 | B (80%< substrate protein remaining %≤ 100%) | B (80%< substrate protein remaining %≤ 100%) | A (0% ≤ substrate protein remaining % ≤ 80%) | B (80%< substrate protein remaining %≤ 100%) | B (80%< substrate protein remaining %≤ 100%) | B (80%< substrate protein remaining %≤ 100%)
O=C1CCC(N2Cc3cc(CN4CCN(c5ccc(F)cc5F)CC4)ccc3C2=S)C(=O)N1 (stereo not drawn) [GT-08613, 3-(5-((4-(2,4-difluorophenyl)piperazin-1-yl)methyl)-1-thioxoisoindolin-2-yl)piperidine-2,6-dione] |  |  |  |  |  |  | 60 to 80 | 80 to 100 | B (80%< substrate protein remaining %≤ 100%) | B (80%< substrate protein remaining %≤ 100%) | B (80%< substrate protein remaining %≤ 100%) | B (80%< substrate protein remaining %≤ 100%) | B (80%< substrate protein remaining %≤ 100%) | A (0% ≤ substrate protein remaining % ≤ 80%)
O=C1CCC(N2Cc3c(CN4CC(c5ccnc6cc(F)ccc56)C4)cccc3C2=S)C(=O)N1 (stereo not drawn) [GT-08860, 3-(4-((3-(7-fluoroquinolin-4-yl)azetidin-1-yl)methyl)-1-thioxoisoindolin-2-yl)piperidine-2,6-dione] | B (80%< substrate protein remaining %≤ 100%) | B (80%< substrate protein remaining %≤ 100%) | B (80%< substrate protein remaining %≤ 100%) | B (80%< substrate protein remaining %≤ 100%) | A (0% ≤ substrate protein remaining % ≤ 80%) | A (0% ≤ substrate protein remaining % ≤ 80%) | 60 to 80 | 80 to 100 |  |  |  |  |  | 
O=C1CCC(N2Cc3cc(CN4CCN(C(c5ccccn5)c5ccccn5)CC4)ccc3C2=S)C(=O)N1 (stereo not drawn) [GT-07734, 3-(5-((4-(di(pyridin-2-yl)methyl)piperazin-1-yl)methyl)-1-thioxoisoindolin-2-yl)piperidine-2,6-dione] |  |  |  |  |  |  | 60 to 80 | 80 to 100 | B (80%< substrate protein remaining %≤ 100%) | B (80%< substrate protein remaining %≤ 100%) | B (80%< substrate protein remaining %≤ 100%) | A (0% ≤ substrate protein remaining % ≤ 80%) | A (0% ≤ substrate protein remaining % ≤ 80%) | A (0% ≤ substrate protein remaining % ≤ 80%)
O=C1CCC(N2Cc3c(CN4CCN(c5nsc6cc(F)ccc56)CC4)cccc3C2=S)C(=O)N1 (stereo not drawn) [GT-08839, 3-(4-((4-(6-fluorobenzo[d]isothiazol-3-yl)piperazin-1-yl)methyl)-1-thioxoisoindolin-2-yl)piperidine-2,6-dione] |  |  |  |  |  |  | 60 to 80 | 80 to 100 | B (80%< substrate protein remaining %≤ 100%) | B (80%< substrate protein remaining %≤ 100%) | B (80%< substrate protein remaining %≤ 100%) | B (80%< substrate protein remaining %≤ 100%) | A (0% ≤ substrate protein remaining % ≤ 80%) | B (80%< substrate protein remaining %≤ 100%)
Cn1cc(C2CCN(Cc3cccc4c3CN(C3CCC(=O)NC3=O)C4=S)CC2)c2ccc(F)cc21 (stereo not drawn) [GT-08844, 3-(4-((4-(6-fluoro-1-methyl-1H-indol-3-yl)piperidin-1-yl)methyl)-1-thioxoisoindolin-2-yl)piperidine-2,6-dione] |  |  |  |  |  |  | 40 to 53 | 60 to 80 | B (80%< substrate protein remaining %≤ 100%) | B (80%< substrate protein remaining %≤ 100%) | B (80%< substrate protein remaining %≤ 100%) | B (80%< substrate protein remaining %≤ 100%) | A (0% ≤ substrate protein remaining % ≤ 80%) | B (80%< substrate protein remaining %≤ 100%)
O=C1CCC(N2Cc3c(CN4CCN(C(c5ccccc5)c5ccccc5)CC4)cccc3C2=S)C(=O)N1 (stereo not drawn) [GT-08191, 3-(4-((4-benzhydrylpiperazin-1-yl)methyl)-1-thioxoisoindolin-2-yl)piperidine-2,6-dione] |  |  |  |  |  |  | 30 to 40 | 60 to 80 | B (80%< substrate protein remaining %≤ 100%) | B (80%< substrate protein remaining %≤ 100%) | B (80%< substrate protein remaining %≤ 100%) | B (80%< substrate protein remaining %≤ 100%) | B (80%< substrate protein remaining %≤ 100%) | A (0% ≤ substrate protein remaining % ≤ 80%)
